Assay results from patent US20080287534A1, “Method for Controlling Insect Pests on Plants” (priority 2005, published 2008).

Assays:
Format in all cases: in vivo
[1] = system: beet armyworm (Spodoptera exigua); assay: Test A: control of beet armyworm by soil application to tomato plants, excised-leaf feeding, visual mortality
Experimental: For evaluating control of beet armyworm (Spodoptera exigua), methomyl was in liquid formulation as Lannate® LV (29% of active ingredient). Oxamyl was in liquid formulation as Vydate® L (24% active ingredient).
The test compounds were dissolved in water. Enough water was added to make 29 ppm of active ingredient for Lannate® LV and 500 ppm of active ingredient for Vydate® L. To obtain the desired mixture concentrations of each compound, twice the desired concentration of each of the two mixture partner compounds were mixed together in equal volumes.
(§1) Diluted solutions (50 mL) of the test compounds were applied to the soil surface of five-week-old tomato plants at the desired concentration, corresponding to 47 g a.i./ha (g active ingredient/hectare) of methomyl and 807 g a.i./ha of oxamyl. The plants were maintained in a greenhouse for 24 h. From each plant, leaves were excised, cut into pieces, and placed singly into 5.5 cm-by-3.5 cm cell of a sixteen-cell plastic tray. Each cell contained solidified agar (3 to 5 mL) to prevent desiccation. A single 4-day old insect larva was placed in each cell, with one tray per treatment. Trays were held in a growth chamber at 25° C., 16-hour light/8-hour dark photoperiod, 60% relative humidity for 4 days.

[2] = system: cabbage looper (Trichoplusia ni); assay: Test B: control of cabbage looper by soil application to cabbage plants, excised-leaf feeding, visual mortality; settings: 96 h, read-out: % Mortality (Observed)
Experimental: (§2) For evaluating control of cabbage looper (Trichoplusia ni) and tobacco budworm (Heliothis virescens), methomyl was in liquid formulation as Lannate® LV (29% of active ingredient). Oxamyl was in liquid formulation as Vydate® L (24% of active ingredient).
(§3) The test compounds were dissolved in water. Enough water was added to make 57 ppm of the Lannate® LV and 250 and 500 ppm of active ingredient for Vydate® L. To obtain the desired mixture concentrations of each compound, twice the desired concentration of each of the two mixture compounds were mixed together in equal volumes.
as §1, with “For the cabbage looper trial, diluted solutions (50 mL) of the test compounds were applied to the soil surface of five-week-old cabbage plants at the desired concentrations, corresponding to 135 g a.i./ha (g active ingredient/hectare) of methomyl and 404 and 807 g a.i./ha of oxamyl. For the tobacco budworm trial, diluted” for “Diluted”, “concentrations,” for “concentration,”, “92” for “47”, “methomyl and 404” for “methomyl”, “two trays” for “one tray”

[3] = system: tobacco budworm (Heliothis virescens); assay: Test B: control of tobacco budworm by soil application to tomato plants, excised-leaf feeding, visual mortality; settings: 96 h, read-out: % Mortality (Observed)
Experimental: as §2, §3
as §1, with “For the cabbage looper trial, diluted solutions (50 mL) of the test compounds were applied to the soil surface of five-week-old cabbage plants at the desired concentrations, corresponding to 135 g a.i./ha (g active ingredient/hectare) of methomyl and 404 and 807 g a.i./ha of oxamyl. For the tobacco budworm trial, diluted” for “Diluted”, “concentrations,” for “concentration,”, “92” for “47”, “methomyl and 404” for “methomyl”, “two trays” for “one tray”

Structure (SMILES)	mortality at 47 g/ha ([1]; Spodoptera exigua, methomyl 47 g a.i./ha, soil application, five-week-old tomato plants, evaluated at 96 h, read-out: % mortality (observed))	mortality at 135 g/ha ([2]; methomyl 135 g a.i./ha, soil application, five-week-old cabbage plants)	mortality at 92 g/ha ([3]; methomyl 92 g a.i./ha, soil application, five-week-old tomato plants)	mortality at 807 g/ha ([1]; Spodoptera exigua, soil, 96 h, read-out: % mortality (observed))	% mortality (observed) ([1]; oxamyl 807 g a.i./ha, soil application, five-week-old tomato plants, evaluated at 96 h)	mortality at 404 g/ha ([2]; soil)	mortality at 807 g/ha ([2]; soil)	mortality at 404 g/ha ([3]; soil)	mortality at 807 g/ha ([3]; soil)
CNC(=O)ON=C(C)SC [Methomyl, methyl N-[[(methylamino)carbonyl]oxy]-ethanimidothioate]	44%	75%	41%						
CNC(=O)ON=C(SC)C(=O)N(C)C [Oxamyl, methyl 2-(dimethylamino)-N-[[(methylamino)-carbonyl]oxy]-2-oxoethanimidothioate]				0%	no mortality	16%	38%	6%	13%
